Results reported in patent US6762197B2 (priority 1999, dated 2004).

Assays:
Sphaerotheca fuliginea = Sphaerotheca fuliginea control effect test (Test Example 6, large-volume foliar spray on cucumber); assay type: in vivo; settings: 200 ppm, flowable (Formulation Example 6), sprayed on cucumber (SAGAMI HANJIRO) before inoculation, 12 days at 23° C.
Description: Test Examples 1 to 6 are tests using a large amount (about 2000 L/ha) of spray on plants, and the extent of spraying is so that the whole surface of a plant body is completely wet and the sprayed liquid drips.
(§1) In the following tests, compounds of the invention are represented by compound numbers described in Tables 1 to 8. The control effect of a compound of the invention was evaluated by visually observing the area of a lesion on a sample plant in investigation and comparing the area of a lesion in a non-treatment district and the area of a lesion in a districts treated with the compound of the invention.
Sand loam was compacted in a plastic pot, a cucumber (SAGAMI HANJIRO) was seeded and grown in a green house for 12 days. Then, the Compound 1 was formulated into flowable fomulation according the Formulation Example 6, then, diluted with water to provide given concentration (200 ppm), and this was sprayed onto stems and leaves so as to give sufficient adhesion on the surface of cucumber leaves. After spraying, the plant was air-dried, and Sphaerotheca fuliginea spores were inoculated. After inoculation, the plant was first left for 12 days at 23° C., then, the control effect was checked.

Puccinia striiformis = Puccinia striiformis control test (Test Example 8, small-volume spray 200 L/ha on wheat); assay type: in vivo; settings: 1000 ppm, emulsifiable formulation (Formulation Example 7), spray amount corresponding to 200 L/ha, wheat (NORIN No. 73), 1 day dark high humidity at 23° C. then 6 days under illumination
Excerpt: (§2) Test Examples 7 and 8 are tests using a small amount (corresponding 200 L/ha) of spray on plants, in which fine small liquid drops of a spray are uniformly adhere to the surface of a plant body and the extent of spraying is insufficient to for complete wetting of the surface of a plant body.
(§3) Controlling on a wheat disease in a field is so conducted in some cases that the spray liquid amount is about 200 L/ha. In this case, the amount of the sprayed liquid is insufficient for wetting of the whole plant body, and the sprayed liquid is adheres on a plant as fine liquid drops. For exerting high control effect on the subject diseases even under such spray condition, suitable physicochemical properties such as permeation transfer property, volatility and the like are required in addition to a basic effect.
as §1
(§4) Sand loam was compacted in a plastic pot, a wheat (NORIN No. 73) was seeded and grown in a green house for 10 days. […]

Erysiphe graminis = Erysiphe graminis control effect test (Test Example 7, small-volume spray 200 L/ha on wheat); assay type: in vivo; settings: 1000 ppm, emulsifiable formulation (Formulation Example 7), spray amount corresponding to 200 L/ha, wheat (NORIN No. 73), inoculated one day after, 7 days at 23° C.
Excerpt: as §2, §3, §1, §4

| SMILES | melting point [°C] | lesion area on plants relative to the lesion area of a non-treatment district (Sphaerotheca fuliginea) | lesion in the treatment district (control effect) (Puccinia striiformis) | lesion in the treatment district (control effect) (Erysiphe graminis) |
| --- | --- | --- | --- | --- |
| Cc1ccc(Br)cc1Cn1c(C(F)F)nn(C)c1=O | 107.6 | – | – | – |
| Cc1ccc(-c2ccccc2)cc1Cn1c(C(F)F)nn(C)c1=O [Compound 1, 5-difluoromethyl-2-methyl-4-(2-methyl-5-phenylbenzyl)-2,4-dihydro-3H-1,2,4-triazol-3-one] | 72.7 | not more than 10% | no lesion was recognized at all | no lesion was recognized at all |
